pKd: −log10 of the molar value.

Kd data for 1 compound are collected here from patent publication US20240390508A1, “HUMAN TRANSFERRIN RECEPTOR BINDING PEPTIDE-DRUG CONJUGATE” (priority 2021, published 2024).

The test addresses transferrin receptor (hTfR) (Homo sapiens, UniProt P02786). Kind of test: Intermolecular interaction evaluation test between transferrin receptor (hTfR) and peptide-nucleic acid conjugate using surface plasmon resonance (SPR). The format is binding. Here is the method: Intermolecular interaction evaluation test between transferrin receptor (hTfR) and peptide using surface plasmon resonance (SPR)
The various synthesized peptide-nucleic acid conjugates were tested for intermolecular interaction by surface plasmon resonance (SPR) of the peptide-nucleic acid conjugate with transferrin receptor (hTfR) using the method shown below. The specific test method is shown below.
NTA sensor chip (Global Life Science Technologies Japan Co., Ltd.) was inserted into Biacore T200 (Global Life Science Technologies Japan Co., Ltd.), prime operation was performed three times with running buffer: 10 mM HEPES pH 8.0 (Nacalai Tesque Co., Ltd.), 150 mM NaCl (Nacalai Tesque Co., Ltd.), 0.05% Tween 20 (Nacalai Tesque Co., Ltd.), 0.1% BSA (SIGMA-ALDRICH), and 1.0% DMSO (FUJIFILM Wako Pure Chemical Corporation), and equilibrated at a flow rate of 30 μL/min. 350 mM EDTA solution was reacted for 60 seconds at a flow rate of 10 μL/min, 0.5 mM NiCl2 solution (Kishida Chemical) was reacted for 60 seconds at a flow rate of 10 μL/min, and the NTA sensor chip was washed with 3 mM EDTA solution (Nacalai Tesque Co., Ltd.) for 60 seconds at a flow rate of 10 μL/min. After mixing 50 μL each of […] EDC solution (Global Life Science Technologies Japan Co., Ltd.) and […] NHS solution (Global Life Science Technologies Japan Co., Ltd.), the mixture was reacted for 420 seconds at a flow rate of 10 μL/min. 150 μL of a 0.5 μM hTfR solution was prepared by diluting with a running buffer and reacted for 300 seconds at a flow rate of 10 μL/min to immobilize hTfR on the NTA sensor chip. After immobilization, capping was performed by reacting with a 1.0 M ethanolamine aqueous solution (Global Life Science Technologies Japan Co., Ltd.) at a flow rate of 10 μL/min for 420 seconds. A peptide-nucleic acid conjugate solution adjusted to 10 mM in DMSO solution was diluted with running buffer to a final concentration of 10 μM peptide-nucleic acid conjugate solution, and 100 nM, 50 nM, 25 nM, 10 nM, 5 nM peptide-nucleic acid conjugate solutions were prepared. Using the aforementioned samples, the kinetics of the peptide against hTfR was obtained by SPR measurement.
The kinetics evaluation model was Single Cycle Kinetics, and curve fitting was performed using Biacore T200 Evaluation Software Version 3.0 (Global Life Science Technologies Japan Co., Ltd.). The obtained sensorgram was subjected to curve fitting using the least squares method, and the binding of the peptide-nucleic acid conjugate to hTfR was evaluated by determining the KD value.
For orientation: In SPR one partner is held on a chip, and binding of the other changes the refractive index at the surface.

Chain of transferrin receptor (hTfR) (P02786 whole entry): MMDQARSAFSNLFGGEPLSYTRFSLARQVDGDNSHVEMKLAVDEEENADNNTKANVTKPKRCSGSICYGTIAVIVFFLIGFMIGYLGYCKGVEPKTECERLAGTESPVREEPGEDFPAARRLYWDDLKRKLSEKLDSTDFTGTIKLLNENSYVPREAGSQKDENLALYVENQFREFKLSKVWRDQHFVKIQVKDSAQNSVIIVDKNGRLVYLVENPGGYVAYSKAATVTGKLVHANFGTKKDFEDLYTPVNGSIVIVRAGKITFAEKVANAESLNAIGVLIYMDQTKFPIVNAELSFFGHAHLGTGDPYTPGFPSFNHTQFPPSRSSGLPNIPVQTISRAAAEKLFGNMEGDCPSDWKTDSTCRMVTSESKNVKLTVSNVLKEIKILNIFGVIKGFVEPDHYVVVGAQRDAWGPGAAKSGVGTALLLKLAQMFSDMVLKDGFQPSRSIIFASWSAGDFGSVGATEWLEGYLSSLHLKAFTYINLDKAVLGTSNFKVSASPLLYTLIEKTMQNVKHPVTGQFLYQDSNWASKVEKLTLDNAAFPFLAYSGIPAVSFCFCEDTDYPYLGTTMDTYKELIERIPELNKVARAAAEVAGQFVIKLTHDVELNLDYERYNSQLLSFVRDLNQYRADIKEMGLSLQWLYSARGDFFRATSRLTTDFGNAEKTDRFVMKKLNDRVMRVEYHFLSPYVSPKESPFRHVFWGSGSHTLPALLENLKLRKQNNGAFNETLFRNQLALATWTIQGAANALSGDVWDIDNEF

Broadly, the pKd is the negative decadic logarithm of the Kd, by convention in mol/L. A low value points to a large Kd. `CC[C@H](C)[C@@H]1NC(=O)[C@H](Cc2ccc(O)cc2)NC(=O)[C@H](Cc2ccc(O)cc2)NC(=O)[C@H](CC(N)=O)NC(=O)[C@H](Cc2c[nH]c3ccccc23)NC(=O)[C@H](C(C)C)NC(=O)[C@H](Cc2ccccc2)N(C)C(=O)[C@H](C(C)C)NC(=O)[C@H](C)NC(=O)CSC[C@@H](C(=O)NCC(=O)N[C@@H](CCCCn2nnc3c2CCC2C(CC3)C2COC(=O)NCCOCCOCC(=O)N[C@@H](CCCNC(=N)N)C(=O)N[C@@H](CCCNC(=N)N)C(=O)N[C@@H](CCCNC(=N)N)C(=O)NCCC(=O)N2C[C@@H](COP(=O)(N(C)C)N3C[C@@H](COP(=O)(N(C)C)N4C[C@@H](COP(=O)(N(C)C)N5C[C@@H](COP(=O)(N(C)C)N6C[C@@H](COP(=O)(N(C)C)N7C[C@@H](COP(=O)(N(C)C)N8C[C@@H](COP(=O)(N(C)C)N9C[C@@H](COP(=O)(N(C)C)N%10C[C@@H](COP(=O)(N(C)C)N%11C[C@@H](COP(=O)(N(C)C)N%12C[C@@H](COP(=O)(N(C)C)N%13C[C@@H](COP(=O)(N(C)C)N%14C[C@@H](COP(=O)(N(C)C)N%15C[C@@H](COP(=O)(N(C)C)N%16C[C@@H](COP(=O)(N(C)C)N%17C[C@@H](COP(=O)(N(C)C)N%18C[C@@H](COP(=O)(N(C)C)N%19C[C@@H](COP(=O)(N(C)C)N%20C[C@@H](COP(=O)(N(C)C)N%21C[C@@H](COP(=O)(N(C)C)N%22C[C@@H](COP(=O)(N(C)C)N%23C[C@@H](COP(=O)(N(C)C)N%24C[C@@H](COP(=O)(N(C)C)N%25C[C@@H](COP(=O)(N(C)C)N%26C[C@@H](COP(=O)(N(C)C)N(C)CC(N)=O)O[C@@H](n%27cnc%28c(=O)[nH]c(N)nc%28%27)C%26)O[C@@H](n%26cc(C)c(=O)[nH]c%26=O)C%25)O[C@@H](n%25cc(C)c(=O)[nH]c%25=O)C%24)O[C@@H](n%24cnc%25c(=O)[nH]c(N)nc%25%24)C%23)O[C@@H](n%23ccc(N)nc%23=O)C%22)O[C@@H](n%22ccc(N)nc%22=O)C%21)O[C@@H](n%21cc(C)c(=O)[nH]c%21=O)C%20)O[C@@H](n%20ccc(N)nc%20=O)C%19)O[C@@H](n%19ccc(N)nc%19=O)C%18)O[C@@H](n%18cnc%19c(=O)[nH]c(N)nc%19%18)C%17)O[C@@H](n%17cnc%18c(=O)[nH]c(N)nc%18%17)C%16)O[C@@H](n%16cc(C)c(=O)[nH]c%16=O)C%15)O[C@@H](n%15cc(C)c(=O)[nH]c%15=O)C%14)O[C@@H](n%14ccc(N)nc%14=O)C%13)O[C@@H](n%13cc(C)c(=O)[nH]c%13=O)C%12)O[C@@H](n%12cnc%13c(=O)[nH]c(N)nc%13%12)C%11)O[C@@H](n%11cnc%12c(N)ncnc%12%11)C%10)O[C@@H](n%10cnc%11c(N)ncnc%11%10)C9)O[C@@H](n9cnc%10c(=O)[nH]c(N)nc%109)C8)O[C@@H](n8cnc9c(=O)[nH]c(N)nc98)C7)O[C@@H](n7cc(C)c(=O)[nH]c7=O)C6)O[C@@H](n6cnc7c(=O)[nH]c(N)nc76)C5)O[C@@H](n5cc(C)c(=O)[nH]c5=O)C4)O[C@@H](n4cc(C)c(=O)[nH]c4=O)C3)O[C@@H](n3ccc(N)nc3=O)C2)C(N)=O)NC(=O)[C@H](Cc2ccc(O)cc2)N(C)C(=O)[C@H](Cc2ccc(O)cc2)NC(=O)[C@H](CCCNC(=N)N)NC(=O)[C@H](CCCNC(=N)N)NC(=O)[C@H]([C@@H](C)CC)NC1=O` (stereo partly shown) [Example 57] showed a pKd of more than 7.00.
